# In paper PMC5390467, “Novel lead structures with both Plasmodium falciparum gametocytocidal and asexual blood stage activity identified from high throughput compound screening” (Malaria Journal, 2017):
# pIC50: −log10 of the molar value.
# Columns and labels:
# [1] = test system: 468 human kinases; assay: human kinase profiling (Kinome scan, DiscoverX), whole panel; assay type: binding
# [2] = target: T1, MAP3K3 (Homo sapiens, UniProt Q99759); assay: Kinome scan profile; assay type: binding; details: 10 μM
# T1 construct: purchased DiscoverX (KINOMEscan)
# T1 sequence (Q99759 1-626): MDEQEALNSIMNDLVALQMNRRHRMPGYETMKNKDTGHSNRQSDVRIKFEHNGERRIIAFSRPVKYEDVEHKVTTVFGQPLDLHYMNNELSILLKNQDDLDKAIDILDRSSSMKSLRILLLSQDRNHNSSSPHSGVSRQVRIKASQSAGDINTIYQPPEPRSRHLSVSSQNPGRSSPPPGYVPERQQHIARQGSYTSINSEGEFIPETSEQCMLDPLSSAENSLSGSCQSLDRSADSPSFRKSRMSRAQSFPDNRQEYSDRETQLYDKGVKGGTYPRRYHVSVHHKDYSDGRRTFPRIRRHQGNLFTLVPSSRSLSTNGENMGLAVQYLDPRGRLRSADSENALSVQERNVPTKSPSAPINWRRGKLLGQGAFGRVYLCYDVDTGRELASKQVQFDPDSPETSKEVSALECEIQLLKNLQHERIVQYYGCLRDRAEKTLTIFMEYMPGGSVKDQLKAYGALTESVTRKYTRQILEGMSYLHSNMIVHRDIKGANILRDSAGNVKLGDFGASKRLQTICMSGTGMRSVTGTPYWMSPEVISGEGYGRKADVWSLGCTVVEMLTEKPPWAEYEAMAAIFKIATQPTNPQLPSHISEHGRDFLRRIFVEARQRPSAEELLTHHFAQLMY
# [3] = target: T2, TYK2(JH1domain-catalytic) (Homo sapiens, UniProt P29597); assay: Kinome scan profile; assay type: binding; details: 10 μM
# T2 construct: TYK2(JH1domain-catalytic); purchased DiscoverX (KINOMEscan)
# T2 sequence (P29597 897-1176 limits assumed): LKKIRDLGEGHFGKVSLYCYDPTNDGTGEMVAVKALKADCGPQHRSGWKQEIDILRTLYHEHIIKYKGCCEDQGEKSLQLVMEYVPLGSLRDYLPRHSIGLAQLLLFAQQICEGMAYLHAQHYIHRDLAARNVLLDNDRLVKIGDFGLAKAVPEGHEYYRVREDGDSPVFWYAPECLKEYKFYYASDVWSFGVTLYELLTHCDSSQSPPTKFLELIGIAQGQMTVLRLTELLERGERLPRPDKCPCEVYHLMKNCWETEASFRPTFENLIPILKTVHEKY
# [4] = target: T3, ALK(C1156Y) (Homo sapiens, UniProt Q9UM73, C1156Y); assay: Kinome scan profile; assay type: binding; details: 10 μM
# T3 construct: purchased DiscoverX (KINOMEscan)
# T3 sequence (Q9UM73 19-1620 C1156Y): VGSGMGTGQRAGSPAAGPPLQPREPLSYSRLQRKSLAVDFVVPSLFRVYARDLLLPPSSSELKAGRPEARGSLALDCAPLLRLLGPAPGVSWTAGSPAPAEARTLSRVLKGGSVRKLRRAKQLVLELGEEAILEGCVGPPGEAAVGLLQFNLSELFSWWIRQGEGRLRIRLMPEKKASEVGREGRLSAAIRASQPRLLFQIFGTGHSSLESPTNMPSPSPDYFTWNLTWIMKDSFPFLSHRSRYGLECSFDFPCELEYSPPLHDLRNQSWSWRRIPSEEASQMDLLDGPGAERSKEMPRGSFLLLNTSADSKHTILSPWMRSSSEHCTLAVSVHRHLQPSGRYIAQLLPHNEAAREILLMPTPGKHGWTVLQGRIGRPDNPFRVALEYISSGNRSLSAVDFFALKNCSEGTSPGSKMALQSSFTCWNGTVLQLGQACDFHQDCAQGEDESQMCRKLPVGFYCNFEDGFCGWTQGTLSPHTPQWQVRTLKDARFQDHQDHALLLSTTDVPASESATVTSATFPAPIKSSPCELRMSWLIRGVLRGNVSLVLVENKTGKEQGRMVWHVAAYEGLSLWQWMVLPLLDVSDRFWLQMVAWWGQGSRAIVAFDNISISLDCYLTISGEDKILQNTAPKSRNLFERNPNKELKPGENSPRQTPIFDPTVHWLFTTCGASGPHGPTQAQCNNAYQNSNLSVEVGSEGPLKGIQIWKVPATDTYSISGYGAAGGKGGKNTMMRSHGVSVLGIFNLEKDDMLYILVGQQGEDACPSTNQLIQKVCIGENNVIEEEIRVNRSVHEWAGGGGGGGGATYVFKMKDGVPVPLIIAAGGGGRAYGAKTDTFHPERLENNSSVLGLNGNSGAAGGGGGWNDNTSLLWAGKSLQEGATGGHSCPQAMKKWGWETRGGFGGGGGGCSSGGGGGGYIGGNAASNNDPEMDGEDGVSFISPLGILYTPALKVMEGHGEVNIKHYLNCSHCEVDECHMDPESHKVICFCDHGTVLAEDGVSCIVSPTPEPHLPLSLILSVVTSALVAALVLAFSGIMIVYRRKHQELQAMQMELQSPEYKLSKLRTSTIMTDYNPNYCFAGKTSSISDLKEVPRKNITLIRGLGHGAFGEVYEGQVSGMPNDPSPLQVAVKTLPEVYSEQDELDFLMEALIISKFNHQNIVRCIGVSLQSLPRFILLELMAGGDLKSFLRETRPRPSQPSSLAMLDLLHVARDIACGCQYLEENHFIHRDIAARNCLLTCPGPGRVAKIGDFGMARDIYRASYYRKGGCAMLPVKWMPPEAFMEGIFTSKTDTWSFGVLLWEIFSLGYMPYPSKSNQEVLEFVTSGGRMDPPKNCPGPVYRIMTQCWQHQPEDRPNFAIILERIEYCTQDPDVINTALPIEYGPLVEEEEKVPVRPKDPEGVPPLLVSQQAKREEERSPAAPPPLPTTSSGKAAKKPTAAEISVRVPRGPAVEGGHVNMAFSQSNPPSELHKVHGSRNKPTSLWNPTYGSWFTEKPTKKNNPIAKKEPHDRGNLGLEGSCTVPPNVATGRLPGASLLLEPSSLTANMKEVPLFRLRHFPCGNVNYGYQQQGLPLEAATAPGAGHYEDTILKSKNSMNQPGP
# [5] = test system: HepG2 cells; assay: HepG2 cytotoxicity assay (AlamarBlue); assay type: cell-based, human; details: HepG2 cells, 72 h, AlamarBlue, up to 46 µM
# Description: (§1) Asexual parasites of P. falciparum strain NF54 were cultured as described previously. Briefly, parasites were maintained in RPMI 1640 medium containing 10% positive human serum + erythrocytes (5% haematocrit), 2.5% sodium bicarbonate and 11 µg/mL gentamicin at 37 °C with 5% CO2, 5% O2 and 90% N2. Gametocyte cultures were set up at 0.1% parasitaemia and on days 9–10 treated with 50 mM N-acetylglucosamine (NAG) to block further asexual growth. Stage III–V gametocytes were isolated by Percoll density gradient centrifugation on day 12 and returned to culture for 24 h before being used in the assay. At the time of the assay over 73% of the gametocytes were stage IV or V (Additional file 1). HepG2 cells (ATCC, cat. no. 77400) were cultured in 175-cm^2 tissue culture flasks with 30 ml growth medium at 37 °C in a 5% CO2 and 5% O2 humidified atmosphere. Growth medium was made with Dulbecco’s Modified Eagle Medium with 10% fetal bovine serum (FBS). Growth medium was replaced every other day and cells were passaged at 75% confluence.
# Drug activity on HepG2 was tested using an AlamarBlue assay as previously described. Briefly, 5 μL/well of HepG2 cells were dispensed with a seeding density of 1000 cells/well using the Multidrop Combi. 23 nL compound was transferred using the NX-TR Pintool. After 72 h incubation under the standard culture condition, 5 μL/well of 2X AlamarBlue dye was added to the cells, the plates were incubated for 2 h at 37 °C with 5% CO2 and then were read in a fluorescence detection mode (Ex = 525 nm, Em = 598 nm) on a ViewLux plate reader.
# [6] = test system: P. falciparum NF54 asexual parasites; assay: asexual parasite growth inhibition assay (SYBR Green); assay type: cell-based, Plasmodium falciparum; details: 72 h, mean ± SD, n = 3
# Description: as §1
# Drug activity on asexual stage parasites was tested using a SYBR Green assay as described previously. Briefly, 2.5 μL/well complete culture medium was dispensed into each well of 1536-well plates using the Multidrop Combi followed by 23 nL compound transferring using the NX-TR Pintool. Parasites were diluted to 0.5% parasitaemia in complete culture medium with 2% haematocrit and drugs diluted in DMSO (≤0.5%). The pre-diluted parasites were dispensed into a 1536-well plate (2.5 μL/well). After 72 h incubation under the standard culture conditions, 5 μL/well of lysis buffer containing SYBR Green I was added to the parasite culture and incubated for 30 min at room temperature. The fluorescence of each well was measured in a fluorescence detection mode (Ex = 490 nm, Em = 520 nm) using a ViewLux plate reader (PerkinElmer).
# [7] = target: T4, SNRK (Homo sapiens, UniProt Q9NRH2); assay: Kinome scan profile; assay type: binding; details: 10 μM
# T4 construct: purchased DiscoverX (KINOMEscan)
# T4 sequence (Q9NRH2 1-765): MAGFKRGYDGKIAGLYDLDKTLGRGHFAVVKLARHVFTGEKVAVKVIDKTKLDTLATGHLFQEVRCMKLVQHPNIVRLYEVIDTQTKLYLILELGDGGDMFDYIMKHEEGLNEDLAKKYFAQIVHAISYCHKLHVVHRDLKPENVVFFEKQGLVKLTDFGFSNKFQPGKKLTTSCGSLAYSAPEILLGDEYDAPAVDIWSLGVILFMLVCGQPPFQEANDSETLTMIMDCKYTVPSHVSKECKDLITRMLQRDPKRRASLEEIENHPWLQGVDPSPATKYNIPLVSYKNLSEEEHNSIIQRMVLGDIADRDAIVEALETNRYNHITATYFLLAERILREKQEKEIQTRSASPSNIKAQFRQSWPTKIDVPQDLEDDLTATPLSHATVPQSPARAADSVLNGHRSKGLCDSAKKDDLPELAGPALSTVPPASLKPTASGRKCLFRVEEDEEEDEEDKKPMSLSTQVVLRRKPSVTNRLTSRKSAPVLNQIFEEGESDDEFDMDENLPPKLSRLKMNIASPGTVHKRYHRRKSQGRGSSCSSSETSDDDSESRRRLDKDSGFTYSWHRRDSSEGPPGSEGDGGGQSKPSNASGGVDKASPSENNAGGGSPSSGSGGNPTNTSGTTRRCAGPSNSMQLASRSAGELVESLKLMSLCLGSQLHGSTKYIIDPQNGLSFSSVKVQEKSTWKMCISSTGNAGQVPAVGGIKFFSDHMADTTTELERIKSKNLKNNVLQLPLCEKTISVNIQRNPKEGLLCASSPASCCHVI
smiles,measurement,setting,value
CCN1CCN(Cc2c(O)ccc3c(=O)c(Oc4ccccc4C(C)C)c(C(F)(F)F)oc23)CC1 [NCGC00100599],"number of human kinases interacting (Interactions Mapped, 468 Assays Tested)",[1]; 10 μM,16
same,S-Score(35),"[1]; 10 µM, 468 assays",0.03
same,"% Control, MAP3K3",[2],34 % Control
same,"% Control, TYK2(JH1domain-catalytic)",[3],19 % Control
same,"% Control, ALK(C1156Y)",[4],28 % Control
same,"HepG2, IC50 (dash = less than 25% cytotoxicity)",[5],– (Indicates compounds with less than 25% cytotoxicity at up to 46 µM)
same,pIC50,[6],6.47
same,"% Control, SNRK",[7],27 % Control
